Results: ChEMBL document CHEMBL1158211, “Cyclic peptides from higher plants. 24.1 yunnanin C, a novel cyclic heptapeptide from Stellaria yunnanensis” (J Nat Prod, 1996)
≈ marks a conversion by molar mass, not a printed value. Residues, ends and D or L forms follow the SMILES beside them.

Tested on: P388
Assay: Cytotoxicity against mouse P388 cells after 48 hrs by MTT assay
Assay type: functional, cell-based
Settings: P388, 48 h

Row | SMILES | IC50
1 | O=C1CNC(=O)[C@H](Cc2ccc(O)cc2)NC(=O)CNC(=O)[C@@H]2CCCN2C(=O)[C@H](Cc2ccccc2)NC(=O)[C@@H]2CCCN2C(=O)CN1 [YUNNANIN A] (HELM PEPTIDE1{F.P.G.Y.G.G.P}$PEPTIDE1,PEPTIDE1,1:R1-7:R2$$$V2.0) | 2.1 µg/mL (≈ 3.11 µM)
2 | CC[C@H](C)[C@@H]1NC(=O)CNC(=O)[C@@H]2CCCN2C(=O)[C@H](CO)NC(=O)[C@H](Cc2ccc(O)cc2)NC(=O)[C@H](Cc2ccccc2)NC(=O)CNC1=O [YUNNANIN C] (HELM PEPTIDE1{F.Y.S.P.G.I.G}$PEPTIDE1,PEPTIDE1,1:R1-7:R2$$$V2.0) | 2.2 µg/mL (≈ 3.05 µM)
